Reference: patent US20240158446A1, “CYCLIC COMPOUND HAVING SELECTIVE INHIBITORY ACTION ON KRAS OVER HRAS AND NRAS” (CHUGAI SEIYAKU KABUSHIKI KAISHA, priority 2021, published 2024)
Like-named read-outs stand apart in the source and are kept apart here. Where a SMILES comes first, the peptide text is derived from it. Bridges are numbered along the chain shown (N, C = ends). [ ]: non-standard residue; d: D form. The star is where a group is joined. hPhe(3-Cl-4-CF3) = N[C@@H](CCc1ccc(C(F)(F)F)c(Cl)c1)C(=O)O; NPrPhe(4-CF3) = CCCN[C@@H](Cc1ccc(C(F)(F)F)cc1)C(=O)O; NMeGly(cPent) = CN[C@H](C(=O)O)C1CCCC1; Pro(4,4-F2) = O=C(O)[C@@H]1CC(F)(F)CN1; NMeD = CN[C@@H](CC(=O)O)C(=O)O; NMeL = CN[C@@H](CC(C)C)C(=O)O; Morpholide = C1CN(*)CCO1; Ac5c = NC1(C(=O)O)CCCC1; Aze = O=C(O)[C@@H]1CCN1; Ac4c = NC1(C(=O)O)CCC1; NEtG = CCNCC(=O)O; Sar = CNCC(=O)O

Columns and labels:
[1] = target: GDP-bound KRAS wild-type protein (Homo sapiens, UniProt P01116); assay: Binding to KRAS by surface plasmon resonance (SPR), Single Cycle Kinetics; settings: GDP-bound KRAS wild-type protein, read-out: KRAS KD
Chain of GDP-bound KRAS wild-type protein (P01116 whole entry): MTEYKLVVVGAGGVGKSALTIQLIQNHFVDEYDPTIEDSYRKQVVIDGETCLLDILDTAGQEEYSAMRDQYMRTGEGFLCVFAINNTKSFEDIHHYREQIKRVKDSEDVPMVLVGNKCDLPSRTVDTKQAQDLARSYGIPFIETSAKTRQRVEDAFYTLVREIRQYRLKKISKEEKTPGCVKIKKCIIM

[2] = target: GDP-bound NRAS wild-type protein (Homo sapiens, UniProt P01111); assay: Binding to NRAS by surface plasmon resonance (SPR), Single Cycle Kinetics; settings: for NRAS/KRAS (ratio of KD value with respect to NRAS to KD value with respect to KRAS) / NRAS/KRAS (ratio of KD value for NRAS to KD value for KRAS): SPR, GDP-bound NRAS wild-type protein vs GDP-bound KRAS wild-type protein
Chain of GDP-bound NRAS wild-type protein (P01111 whole entry): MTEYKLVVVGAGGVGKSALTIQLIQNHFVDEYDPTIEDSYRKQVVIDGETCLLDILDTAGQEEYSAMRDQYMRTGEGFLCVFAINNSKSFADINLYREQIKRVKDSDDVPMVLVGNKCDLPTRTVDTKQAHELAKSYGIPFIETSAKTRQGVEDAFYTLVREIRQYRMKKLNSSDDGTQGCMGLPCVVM

[3] = target: GDP-bound HRAS wild-type protein (Homo sapiens, UniProt P01112); assay: Binding to HRAS by surface plasmon resonance (SPR), Single Cycle Kinetics; settings: for HRAS/KRAS (ratio of KD value with respect to HRAS to KD value with respect to KRAS) / HRAS/KRAS (ratio of KD value for HRAS to KD value for KRAS): SPR, GDP-bound HRAS wild-type protein vs GDP-bound KRAS wild-type protein
Chain of GDP-bound HRAS wild-type protein (P01112 whole entry): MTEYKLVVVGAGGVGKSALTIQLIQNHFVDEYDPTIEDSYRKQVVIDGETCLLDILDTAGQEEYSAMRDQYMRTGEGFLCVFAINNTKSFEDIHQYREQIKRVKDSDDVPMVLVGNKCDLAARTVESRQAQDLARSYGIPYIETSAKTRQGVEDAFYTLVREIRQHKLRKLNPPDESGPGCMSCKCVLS

[4] = SPR Single Cycle Kinetics, 1:1 binding model
[5] = SPR, Single Cycle Kinetics, 1:1 binding model

| Kd [1, 4] [nM] | SMILES | NRAS/KRAS (ratio of KD value with respect to NRAS to KD value with respect to KRAS) [2] | HRAS/KRAS (ratio of KD value with respect to HRAS to KD value with respect to KRAS) [3] | NRAS/KRAS (ratio of KD value for NRAS to KD value for KRAS) [2] | HRAS/KRAS (ratio of KD value for HRAS to KD value for KRAS) [3] | further results |
| --- | --- | --- | --- | --- | --- | --- |
| 0.056 | CCCN1C(=O)[C@@H]2CCN2C(=O)CN(C)C(=O)[C@H]([C@@H](C)CC)NC(=O)[C@H](CC(C)C)N(C)C(=O)C[C@@H](C(=O)N2CCOCC2)N(C)C(=O)[C@H](C2CCCC2)N(C)C(=O)C2(CCC2)NC(=O)[C@@H]2CC(F)(F)CN2C(=O)[C@H](CCc2ccc(C(F)(F)F)c(Cl)c2)NC(=O)CN(C)C(=O)[C@@H]1Cc1ccc(C(F)(F)F)cc1 [PP0409] ([NMeL]I[Sar][Aze][NPrPhe(4-CF3)][Sar][hPhe(3-Cl-4-CF3)][Pro(4,4-F2)][Ac4c][NMeGly(cPent)][NMeD]-Morpholide; lactam N-11) | C (A compound having a KD ratio of 0.1 or more and less than 3 is denoted as C) | C (A compound having a KD ratio of 0.1 or more and less than 3 is denoted as C) | – | – | – |
| 0.93 | CC[C@H](C)[C@@H]1NC(=O)[C@H](C)N(C)C(=O)C[C@@H](C(=O)N2CCOCC2)N(C)C(=O)[C@H](C2CCCC2)N(C)C(=O)C2(CCC2)NC(=O)[C@@H]2CC(F)(F)CN2C(=O)[C@H](CCc2cc(F)c(C(F)(F)F)c(F)c2)NC(=O)CN(C)C(=O)[C@H](Cc2ccc(C(F)(F)F)cc2)N2CCCCC[C@@H](C2=O)N(C)C(=O)CN(C)C1=O [PP0471] | B (a compound having 3 or more and less than 10 is denoted as B) | B (a compound having 3 or more and less than 10 is denoted as B) | – | – | – |
| 1.5 | CCCN1C(=O)CN(C)C(=O)CN(CC)C(=O)[C@H]([C@@H](C)CC)NC(=O)[C@H](CC(C)C)N(C)C(=O)C[C@@H](C(=O)N(C)C)NC(=O)[C@H](C2CCCC2)N(C)C(=O)C2(CCC2)NC(=O)[C@@H]2CC(F)(F)CN2C(=O)[C@H](CCc2ccc(C(F)(F)F)c(Cl)c2)NC(=O)CN(C)C(=O)[C@@H]1Cc1ccc(C(F)(F)F)cc1 [PP0370] ([NMeL]I[NEtG][Sar][NPrPhe(4-CF3)][Sar][hPhe(3-Cl-4-CF3)][Pro(4,4-F2)][Ac4c][NMeGly(cPent)]D-NMe2; lactam N-11) | – | – | B (a compound having 3 or more and less than 10 is denoted as B) | C (A compound having a KD ratio of 0.1 or more and less than 3 is denoted as C) | – |
| – | CCO[C@@H]1C[C@H]2C(=O)NC3(CC(C)(C)C3)C(=O)N(C)[C@@H](C(CC)CC)C(=O)N(C)[C@H](C(=O)N3CCCC3)CC(=O)N(C)[C@@H](C)C(=O)N[C@@H]([C@@H](C)CC)C(=O)N(C)CC(=O)N(C)[C@H]3C/C=C\CCN(C3=O)[C@@H](Cc3ccc(C)cc3)C(=O)N(C)CC(=O)N[C@@H](CCc3cc(F)c(C(F)(F)F)c(F)c3)C(=O)N2C1 [PP2145] | – | – | A (a compound having 10 or more and less than 20 is denoted as A) | A (a compound having 10 or more and less than 20 is denoted as A) | Kd ([1]; SPR, Single Cycle Kinetics): 0.39 nM |
| – | CCCOC[C@H]1C(=O)N[C@@H]([C@@H](C)CC)C(=O)N(C)CC(=O)N(C)[C@H]2C/C=C\CCN(C2=O)[C@@H](CC2CCC(F)(F)CC2)C(=O)N(C)CC(=O)N[C@@H](CCc2ccc(C(F)(F)F)c(OC)c2)C(=O)N2C[C@H](OCC)C[C@H]2C(=O)N(C)C2(CCC2)C(=O)N(C)[C@@H](C2CCCC2)C(=O)N(C)[C@H](C(=O)N(C)C)CC(=O)N1C [PP2350] | – | – | A (a compound having 10 or more and less than 20 is denoted as A) | A (a compound having 10 or more and less than 20 is denoted as A) | Kd ([1]; SPR, Single Cycle Kinetics): 0.35 nM |
| – | CCC[C@H]1C(=O)N[C@@H](C(CC)CC)C(=O)N(C)CC(=O)N(C)[C@H]2C/C=C\CCN(C2=O)[C@@H](Cc2ccc(C)cc2)C(=O)N(C)CC(=O)N[C@@H](CCc2ccc(C(F)(F)F)c(Cl)c2)C(=O)N2C[C@H](OCC)C[C@H]2C(=O)NC2(CC(C)(C)C2)C(=O)N(C)[C@@H](CC(C)(C)C)C(=O)N(C)[C@H](C(=O)N(C)C)CC(=O)N1C [PP2207] | – | – | A (a compound having 10 or more and less than 20 is denoted as A) | A (a compound having 10 or more and less than 20 is denoted as A) | Kd ([1]; SPR, Single Cycle Kinetics): 0.79 nM |
| 0.02 | CC[C@H](C)[C@@H]1NC(=O)[C@H](C)N(C)C(=O)C[C@@H](C(=O)N(C)C)N(C)C(=O)[C@H](C2CCCC2)N(C)C(=O)C2(CCC2)NC(=O)[C@@H]2CCCN2C(=O)[C@H](CCc2cc(F)c(C(F)(F)F)c(F)c2)NC(=O)CN(C)C(=O)[C@H](Cc2ccc(C(F)(F)F)cc2)N2CCCC[C@@H](C2=O)N(C)C(=O)CN(C)C1=O [PP0581] | C (A compound having a KD ratio of 0.1 or more and less than 3 is denoted as C) | B (a compound having 3 or more and less than 10 is denoted as B) | – | – | – |
| 0.24 | CCCN1C(=O)CN(C)C(=O)CN(C)C(=O)[C@H]([C@@H](C)CC)NC(=O)[C@H](CC(C)C)N(C)C(=O)C[C@@H](C(=O)N2CCOCC2)N(C)C(=O)[C@H](C2CCCC2)N(C)C(=O)C2(CCCC2)NC(=O)CN(CC)C(=O)[C@H](CCc2ccc(C(F)(F)F)c(Cl)c2)NC(=O)CN(C)C(=O)[C@@H]1Cc1ccc(C(F)(F)F)cc1 [PP0144] ([NMeL]I[Sar][Sar][NPrPhe(4-CF3)][Sar][hPhe(3-Cl-4-CF3)][NEtG][Ac5c][NMeGly(cPent)][NMeD]-Morpholide; lactam N-11) | – | – | B (a compound having 3 or more and less than 10 is denoted as B) | C (A compound having a KD ratio of 0.1 or more and less than 3 is denoted as C) | – |
| – | CCO[C@@H]1C[C@H]2C(=O)NC3(CCC3)C(=O)N(C)[C@@H](C3CCCC3)C(=O)N(C)[C@H](C(=O)N(C)CCOC)CC(=O)N(C)[C@@H](CC3CC3)C(=O)N[C@@H]([C@@H](C)CC)C(=O)N(C)CC(=O)N(C)[C@H]3C/C=C\CCN(C3=O)[C@@H](Cc3ccc(C(F)(F)F)cc3)C(=O)N(C)CC(=O)N[C@@H](CCc3cc(F)c(C(F)(F)F)c(F)c3)C(=O)N2C1 [PP1318] | – | – | – | – | Kd [1, 5]: 0.091 nM; NRAS/KRAS (ratio of KD value for NRAS to KD value for KRAS) ([2]; KD ratio class): A (a compound having 10 or more and less than 20 is denoted as A); HRAS/KRAS (ratio of KD value for HRAS to KD value for KRAS) ([3]; KD ratio class): A (a compound having 10 or more and less than 20 is denoted as A) |
| 0.39 | CCC[C@H]1C(=O)N[C@@H]([C@@H](C)CC)C(=O)N(C)CC(=O)N(C)[C@H]2C/C=C\CCN(C2=O)[C@@H](Cc2ccc(C(F)(F)F)cc2)C(=O)N(C)CC(=O)N[C@@H](CCc2cc(Cl)c3sccc3c2)C(=O)N2C[C@H](OCC)C[C@H]2C(=O)NC2(CC(C)(C)C2)C(=O)N(C)[C@@H](C(CC)CC)C(=O)N(C)[C@H](C(=O)N(C)C)CC(=O)N1C [PP2888] | – | – | – | – | NRAS/KRAS (ratio of KD value with respect to GDP-bound NRAS wild-type protein to KD value with respect to KRAS) ([2]; SPR KD ratio NRAS/KRAS, class symbols): AA (a compound having 20 or more is denoted as AA); HRAS/KRAS (ratio of KD value with respect to GDP-bound HRAS wild-type protein to KD value with respect to KRAS) ([3]; SPR KD ratio HRAS/KRAS, class symbols): A (a compound having 10 or more and less than 20 is denoted as A) |
| – | CCO[C@@H]1C[C@H]2C(=O)NC3(CCC3)C(=O)N(C)[C@@H](C(CC)CC)C(=O)N(C)C(C(C)C)CC(=O)N(C)[C@@H](CC)C(=O)N[C@@H]([C@@H](C)CC)C(=O)N(C)CC(=O)N(C)[C@H]3C/C=C\CCN(C3=O)[C@@H](Cc3ccc(C(F)(F)F)cc3)C(=O)N(C)CC(=O)N[C@@H](CCc3cc(F)c(C(F)(F)F)c(F)c3)C(=O)N2C1 (stereo partly drawn) [PP1589] | – | – | – | – | Kd [1, 5]: 1.8 nM; NRAS/KRAS (ratio of KD value for NRAS to KD value for KRAS) ([2]; KD ratio class): A (a compound having 10 or more and less than 20 is denoted as A); HRAS/KRAS (ratio of KD value for HRAS to KD value for KRAS) ([3]; KD ratio class): A (a compound having 10 or more and less than 20 is denoted as A) |
| 0.035 | CCO[C@@H]1C[C@H]2C(=O)NC3(CCC3)C(=O)N(C)[C@@H](C3CCCC3)C(=O)N(C)[C@H](C(=O)N3CCOCC3)CC(=O)N(C)[C@@H](CC3CCCC3)C(=O)N[C@@H]([C@@H](C)CC)C(=O)N(C)CC(=O)N(C)[C@H]3CCCCN(C3=O)[C@@H](Cc3ccc(C(F)(F)F)cc3)C(=O)N(C)CC(=O)N[C@@H](CCc3cc(F)c(C(F)(F)F)c(F)c3)C(=O)N2C1 [PP0715] | C (A compound having a KD ratio of 0.1 or more and less than 3 is denoted as C) | B (a compound having 3 or more and less than 10 is denoted as B) | – | – | – |
| – | CCO[C@@H]1C[C@H]2C(=O)NC3(CCC3)C(=O)N(C)[C@@H](C3CCCC3)C(=O)N(C)[C@H](C(=O)N(C)C)CC(=O)N(C)[C@@H](Cc3ccc(C)cc3)C(=O)N[C@@H]([C@@H](C)CC)C(=O)N(C)CC(=O)N(C)[C@H]3CCCCCN(C3=O)[C@@H](Cc3ccc(C(F)(F)F)cc3)C(=O)N(C)CC(=O)N[C@@H](CCc3cc(F)c(C(F)(F)F)c(F)c3)C(=O)N2C1 [PP0943] | – | – | B (a compound having 3 or more and less than 10 is denoted as B) | B (a compound having 3 or more and less than 10 is denoted as B) | Kd ([1]; SPR, Single Cycle Kinetics): 1.1 nM |
| 0.63 | CC[C@H](C)[C@@H]1NC(=O)[C@H](CC(C)C)N(C)C(=O)C[C@@H](C(=O)N2CCOCC2)N(C)C(=O)[C@H](C2CCCC2)N(C)C(=O)C2(CCCC2)NC(=O)[C@@H]2CCCN2C(=O)[C@H](CCc2ccc(C(F)(F)F)c(Cl)c2)NC(=O)CN(C)C(=O)[C@H](Cc2ccc(OC(F)(F)F)cc2)N2CCCC[C@@H](C2=O)N(C)C(=O)CN(C)C1=O [PP0536] | B (a compound having 3 or more and less than 10 is denoted as B) | B (a compound having 3 or more and less than 10 is denoted as B) | – | – | – |
